Legend:
Crabgrass (CG) [1] = test: Pre-emergence herbicide test; assay type: in vivo, Digitaria sanquinalis; conditions: Digitaria sanguinalis, pre-emergence, 336 h, two weeks after treatment
Procedure, shortened: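 Crabgrass (Digitaria sanquinalis) was surface seeded in 3' plastic pots of potting soil, covered with screened soil, and watered by sub-irrigation in greenhouse trays. Pots were seeded one day before spraying in a hood with a moving belt and fixed nozzle. Plants stayed in the greenhouse on sub-irrigation, and pre-emergence control was rated visually two weeks after treatment.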

Johnson grass (JG) [2] = test: Pre-emergence herbicide test; assay type: in vivo, Sorgum helepense; conditions: Sorghum halepense, 336 h, two weeks after treatment
Procedure, shortened: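 Visual injury or control rating two weeks post-treatment, after pre-emergence spray of 8 or 4 lbs active per acre (38 gal/acre) onto pots sown the previous day. Greenhouse watering by sub-irrigation only.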

Barnyard grass (BG) [3] = test: Pre-emergence herbicide test; assay type: in vivo; conditions: Echinochloa crus-galli, 336 h, two weeks after treatment
Procedure, shortened: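 Greenhouse pre-emergence spray test: pots seeded one day before treatment received compound at rates of 8 or 4 lb/acre (38 gal/acre). Visual injury/control scores for Echinochloa crus-galli taken at two weeks, with watering by sub-irrigation only.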

Amaranth pigweed (PW) [4] = test: Pre-emergence herbicide test; assay type: in vivo, Amaranthus retroflexus; conditions: 336 h, two weeks after treatment
Procedure, shortened: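 Visual injury or control ratings were made at two weeks on pre-emergence pots, sub-irrigated in the greenhouse. Seeds were sown a day before a hood spray delivering 8 lbs/acre (or 4 lbs/acre) of compound in 38 gallons per acre.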

Turnip (TP) [5] = test: Pre-emergence herbicide test; assay type: in vivo, Brassica sp.; conditions: Brassica rapa, pre-emergence, 336 h, two weeks after treatment
Procedure, shortened: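 In this pre-emergence greenhouse test, turnip was seeded on the surface of potting soil in 3' plastic pots, lightly covered with screened soil, and watered from below. One day later the pots were sprayed in a belt-fed spray hood. Watering continued only by sub-irrigation, and percent control was visually scored two weeks after treatment.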

Cotton (CT) [6] = test: Pre-emergence herbicide test; assay type: in vivo, Gossypium hirsutum var. DPL smooth leaf; conditions: Gossypium hirsutum, 336 h, two weeks after treatment
Procedure, shortened: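 Visual injury/control ratings were taken at two weeks post-spray. Pots seeded a day earlier received compound pre-emergence at 8 lbs/acre, or 4 lbs/acre, in a 38 gallon/acre spray volume, and were then held in the greenhouse, watered only from below.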

Corn (CN) [7] = test: Pre-emergence herbicide test; assay type: in vivo; conditions: Zea mays, 336 h, two weeks after treatment
Procedure, shortened: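 Visual injury/control ratings were made 2 weeks post-spray on corn pots seeded (4 seeds, seed-diameter depth) the day before treatment. Application was a belt-hood spray of 38 gal/acre delivering 8 lbs active per acre, with a 4 lbs/acre rate also formulated. Watering was by sub-irrigation throughout.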

Bean (BN) [8] = test: Pre-emergence herbicide test; assay type: in vivo, Phaseolus vulgaris var. Black Valentine; conditions: Phaseolus vulgaris, 336 h, two weeks after treatment
Procedure, shortened: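 Visual injury/control ratings were taken two weeks post-spray on sub-irrigated Phaseolus vulgaris var. Black Valentine. Pots were sown a day before treatment. Pre-emergence spray delivered 8 lbs actual compound per acre (or 4 lbs/acre) at 38 gallons per acre.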

Crabgrass (CG) [9] = test: Post-emergence herbicide test; assay type: in vivo, Digitaria sanquinalis; conditions: Digitaria sanguinalis, post-emergence, 336 h, two weeks after treatment
Procedure, shortened: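 Crabgrass (Digitaria sanquinalis) was surface seeded individually in 3' plastic pots of potting soil, covered with screened soil, and watered by sub-irrigation in greenhouse trays. Planting was staggered so seedlings reached the target stage together. Post-emergence sprays were applied in a hood with a removable belt and fixed nozzle, and control was visually rated two weeks after treatment.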

Johnson grass (JG) [10] = test: Post-emergence herbicide test; assay type: in vivo, Sorgum helepense; conditions: Sorghum halepense, 336 h, two weeks after treatment
Procedure, shortened: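 Visual injury or control scores taken 2 weeks after a post-emergence spray of pot-grown plants. Application was 8 lbs/acre (or 4 lbs/acre) in 38 gal/acre. Plants were held in the greenhouse with sub-irrigation only.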

Barnyard grass (BG) [11] = test: Post-emergence herbicide test; assay type: in vivo; conditions: Echinochloa crus-galli, 336 h, two weeks after treatment
Procedure, shortened: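 Greenhouse pot-grown barnyard grass seedlings sprayed post-emergence at 8 lbs active compound per acre (some at 4 lbs/acre) in 38 gallons per acre, then sub-irrigated. Injury or control rated visually two weeks after treatment.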

Amaranth pigweed (PW) [12] = test: Post-emergence herbicide test; assay type: in vivo, Amaranthus retroflexus; conditions: 336 h, two weeks after treatment
Procedure, shortened: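 Visual injury or control ratings were made two weeks after spraying, with greenhouse watering by sub-irrigation only. Treatment was post-emergence, when pigweed seedlings had 1 or 2 true leaves, at 8 lbs active compound per acre (4 lbs/acre formulations also made) in a 38 gallons-per-acre spray volume.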

Turnip (TP) [13] = test: Post-emergence herbicide test; assay type: in vivo, Brassica sp.; conditions: Brassica rapa, post-emergence, 336 h, two weeks after treatment
Procedure, shortened: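 A greenhouse post-emergence herbicide test on turnip. Seeds were sown on the surface of potting soil in 3' plastic pots, lightly covered with screened soil and watered from below. Planting was timed so seedlings had 1 or 2 true leaves above the cotyledons at spraying, done in a hood with a fixed nozzle. Control or injury was scored by eye after two weeks.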

Cotton (CT) [14] = test: Post-emergence herbicide test; assay type: in vivo, Gossypium hirsutum var. DPL smooth leaf; conditions: Gossypium hirsutum, post-emergence, 336 h, two weeks after treatment
Procedure, shortened: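 This greenhouse post-emergence test measured how well spray treatments controlled cotton. Seedlings of Gossypium hirsutum var. DPL smooth leaf, with expanded cotyledons and a first true leaf 1' in length, were sprayed with 50 ml formulations in a belt-fed spray hood. They were then returned to the greenhouse and watered only by sub-irrigation. Injury was scored visually as % control after two weeks.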

Corn (CN) [15] = test: Post-emergence herbicide test; assay type: in vivo; conditions: Zea mays, 336 h, two weeks after treatment
Procedure, shortened: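 Greenhouse seedlings grown in potting soil and sprayed post-emergence at 8 lbs compound/acre (formulations also made for 4 lbs/acre) in 38 gallons/acre spray volume. Watering by sub-irrigation only. Injury or control rated visually two weeks after treatment.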

Bean (BN) [16] = test: Post-emergence herbicide test; assay type: in vivo, Phaseolus vulgaris var. Black Valentine; conditions: Phaseolus vulgaris, post-emergence, 336 h, two weeks after treatment
Procedure, shortened: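 Bean seedlings (Phaseolus vulgaris var. Black Valentine) were grown in potting soil in 3' pots until the primary leaves expanded. They were then sprayed under a hood with a removable belt and fixed nozzle, using 50 ml formulations. Afterward they were returned to the greenhouse and watered only by sub-irrigation. Percent control was judged visually two weeks after treatment.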

## CCCSc1nnc(N(C)C(=O)N(C)C)s1 [Example 66]
Crabgrass (CG) [1]; 2 lb/acre
  pest or weed control: 30%
Crabgrass (CG) [1]; 4 lb/acre
  pest or weed control at 4483.4 g/ha: 100%
Johnson grass (JG) [2]; 2 lb/acre
  pest or weed control at 2241.7 g/ha: 20%
Johnson grass (JG) [2]; 4 lb/acre
  pest or weed control at 4483.4 g/ha: 100%
Barnyard grass (BG) [3]; 2 lb/acre
  pest or weed control at 2241.7 g/ha: 30%
Barnyard grass (BG) [3]; 4 lb/acre
  pest or weed control at 4483.4 g/ha: 100%
Amaranth pigweed (PW) [4]; 2 lb/acre
  pest or weed control at 2241.7 g/ha: 100%
Amaranth pigweed (PW) [4]; 4 lb/acre
  pest or weed control at 4483.4 g/ha: 100%
Turnip (TP) [5]; 2 lb/acre
  pest or weed control at 2241.7 g/ha: 50%
Turnip (TP) [5]; 4 lb/acre
  pest or weed control at 4483.4 g/ha: 100%
Cotton (CT) [6]; 2 lb/acre
  pest or weed control at 2241.7 g/ha: 80%
Cotton (CT) [6]; 4 lb/acre
  pest or weed control at 4483.4 g/ha: 100%
Corn (CN) [7]; 2 lb/acre
  pest or weed control at 2241.7 g/ha: 0%
Corn (CN) [7]; 4 lb/acre
  pest or weed control at 4483.4 g/ha: 50%
Bean (BN) [8]; 2 lb/acre
  pest or weed control at 2241.7 g/ha: 100%
Bean (BN) [8]; 4 lb/acre
  pest or weed control at 4483.4 g/ha: 100%
Crabgrass (CG) [9]; 2 lb/acre
  pest or weed control: 50%
Crabgrass (CG) [9]; 4 lb/acre
  pest or weed control at 4483.4 g/ha: 100%
Johnson grass (JG) [10]; 2 lb/acre
  pest or weed control: 50%
Johnson grass (JG) [10]; 4 lb/acre
  pest or weed control at 4483.4 g/ha: 60%
Barnyard grass (BG) [11]; 2 lb/acre
  pest or weed control at 2241.7 g/ha: 60%
Barnyard grass (BG) [11]; 4 lb/acre
  pest or weed control at 4483.4 g/ha: 70%
Amaranth pigweed (PW) [12]; 2 lb/acre
  pest or weed control at 2241.7 g/ha: 100%
Amaranth pigweed (PW) [12]; 4 lb/acre
  pest or weed control at 4483.4 g/ha: 100%
Turnip (TP) [13]; 2 lb/acre
  pest or weed control at 2241.7 g/ha: 100%
Turnip (TP) [13]; 4 lb/acre
  pest or weed control at 4483.4 g/ha: 100%
Cotton (CT) [14]; 2 lb/acre
  pest or weed control at 2241.7 g/ha: 100%
Cotton (CT) [14]; 4 lb/acre
  pest or weed control at 4483.4 g/ha: 100%
Corn (CN) [15]; 2 lb/acre
  pest or weed control: 30%
Corn (CN) [15]; 4 lb/acre
  pest or weed control at 4483.4 g/ha: 100%
Bean (BN) [16]; 2 lb/acre
  pest or weed control at 2241.7 g/ha: 90%
Bean (BN) [16]; 4 lb/acre
  pest or weed control at 4483.4 g/ha: 100%

Reference: patent US4175081A, “5-Substituted thiadiazole ureas” (priority 1977, dated 1979)
